Where a SMILES comes first, the peptide text is derived from it. Bridges are numbered along the chain shown (N, C = ends). The star is where a group is joined. MeO(CH2CH2O)23CH2CH2CO = COCCOCCOCCOCCOCCOCCOCCOCCOCCOCCOCCOCCOCCOCCOCCOCCOCCOCCOCCOCCOCCOCCOCCOCCC(=O)*
How the values were obtained:
Recombinant human NEP = Recombinant human NEP (Homo sapiens, UniProt P08473); experiment: in vitro NEP cleavage assay (disappearance of non-cleaved CNP variant)
Procedure, shortened: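 Recombinant human NEP (1 ug/mL final) incubated with 100 uM CNP variant in 0.1 M Tris, pH 7, at 37° C for various times, then quenched with EDTA (10 mM final) and heat. Samples reduced and analysed by HPLC and mass spectrometry. Half-life derived from loss of intact variant over time.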

[1] = system: wild-type mouse femurs and tibias; experiment: mouse organ culture model of endochondral bone growth, wild-type bones; conditions: for longitudinal growth of wild-type mouse femur ex vivo: 8 days
Description: (§1) To determine the efficacy of CNP variants in stimulating longitudinal bone growth, CNP variants were tested in a mouse organ culture model of endochondral bone growth in wild-type mice and transgenic mice having a G380R mutation in the human FGFR-3 gene (FGFR3^wt/Ach heterozygote) which represent a mouse model of mild achondroplasia. In brief, the pharmacological activity of wild-type CNP22 and CNP variants was compared in an organ culture model of embryonic or neonatal mouse tibiae, isolated from wild-type and FGFR3^wt/Ach littermates. Overall bone growth and histological changes within the growth plate were assessed. Conditioned culture medium is also assessed for biomarkers of intracellular signaling (cGMP), cartilage metabolism (type II collagen, other collagens, aggrecan chondroitin sulfate), bone metabolism (bone alkaline phosphatase, osteocalcin, type I collagen [C-telopeptide, N-telopeptide]), and inflammation (interleukin-1, interleukin 6, interleukin-11).
(§2) The efficacy of wtCNP22, CNP37 and PEO24-[…]22(K4R) (SEQ ID NO: 36) in stimulating longitudinal femoral growth was evaluated in the mouse organ culture model. For these experiments femora were isolated from 2-3 day old wild-type mice and cultured in alphaMEM supplemented with 0.2% BSA, 0.5 mM L-glutamine, 40 units penicillin/mL and 40 ug streptomycin/mL, for 8 days in the presence of vehicle, CNP22 or CNP variants. The treatment commenced at day 0 and was repeated every two days thereafter, as the medium was changed. Bones were measured prior to treatment and every two days thereafter, using a dissection microscope fitted with a 1 cm eye-piece reticule. Conditioned medium was used for biomarker analysis. At day 8 bones were fixed in 4% paraformaldehyde for 24 hr, decalcified in 5% formic acid for 24 hrs, dehydrated and embedded in paraffin. Bones were sectioned at 5 um (microns), which were then deparaffinized, rehydrated, and stained with Alcian Blue for 30 min (pH 2.5; MasterTech). Alcian Blue stains cartilage blue. Stained sections were visualized and photographed by brightfield microscopy. The thickness of the hypertrophic region of the growth plate cartilage was determined by image analysis.
In addition to the distribution of CNP variants in the bone growth plate, the ex vivo effects of CNP37, CNP22 and vehicle on cells in the FGFR3^ach and wild-type growth plate, e.g., hypertrophic cell size and cellularity of proliferating zone, were also evaluated. Bone samples were prepared, including Alcian Blue staining, as described above. Images of the entire proximal growth plate were taken at 4× magnitude. The growth plate is divided into three zones, starting from the epiphyseal side of cartilage: the resting zone (individual small chondrocytes), proliferating zone (columns of stacked chondrocytes parallel to the long axis of the bone), and hypertrophic zone (large chondrocytes and thin septa between the chondrocytes). In these regions, measurements were made by ImageJ software, including the number of proliferating chondrocytes per column and the density of hypertrophic chondrocytes. […] The cell size of hypertrophic chondrocytes was calculated by 1 over determined cell density. […]
Femurs and tibias were isolated from wild-type and FGFR3^ach mice as described above. […] On the eighth day, media was collected and analyzed for the biomarkers cGMP (cyclic guanosine 3′, 5′ cyclic monophosphate) and fragments of cleaved collagen type II, a cartilage-specific marker for cartilage turnover. […]

[2] = system: FGFR3^ach mouse femurs and tibias; experiment: mouse organ culture model of endochondral bone growth, FGFR3^ach bones
Description: as §1, §2
Furthermore, ex vivo distribution of CNP37 in the growth plate of FGFR3^ach mouse tibia was evaluated. Bone samples were prepared as described above. Paraffin sections were cut and heat fixed for 1 hour at 60° C. Antigen retrieval with 1% hyaluronidase at 37° C. (30 minutes) was followed by a 1 hour serum block (10% Normal Goat Serum). […]
In addition to the distribution of CNP variants in the bone growth plate, the ex vivo effects of CNP37, CNP22 and vehicle on cells in the FGFR3^ach and wild-type growth plate, e.g., hypertrophic cell size and cellularity of proliferating zone, were also evaluated. […]

Recombinant human NEP, sequence (P08473 whole entry): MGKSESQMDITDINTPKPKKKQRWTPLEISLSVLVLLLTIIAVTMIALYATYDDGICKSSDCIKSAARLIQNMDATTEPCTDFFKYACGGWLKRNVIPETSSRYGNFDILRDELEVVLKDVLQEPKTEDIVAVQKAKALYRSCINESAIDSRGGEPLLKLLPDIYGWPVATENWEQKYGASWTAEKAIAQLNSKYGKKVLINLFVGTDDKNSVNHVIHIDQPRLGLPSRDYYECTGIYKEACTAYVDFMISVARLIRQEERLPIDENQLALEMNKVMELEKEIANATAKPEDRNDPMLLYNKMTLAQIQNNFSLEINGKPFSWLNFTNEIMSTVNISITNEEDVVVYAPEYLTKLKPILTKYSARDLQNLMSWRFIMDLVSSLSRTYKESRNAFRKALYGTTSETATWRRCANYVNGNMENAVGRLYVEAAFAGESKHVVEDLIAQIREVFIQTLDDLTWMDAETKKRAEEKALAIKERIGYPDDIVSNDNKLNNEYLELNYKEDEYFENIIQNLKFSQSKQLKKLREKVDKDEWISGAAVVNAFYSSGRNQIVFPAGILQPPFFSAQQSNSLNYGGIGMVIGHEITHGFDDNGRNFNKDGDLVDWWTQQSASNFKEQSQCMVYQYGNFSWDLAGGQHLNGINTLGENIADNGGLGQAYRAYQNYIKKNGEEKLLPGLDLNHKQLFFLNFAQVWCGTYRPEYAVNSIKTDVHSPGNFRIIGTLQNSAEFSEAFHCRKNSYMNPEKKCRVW

In the case of `CC[C@H](C)[C@@H]1NC(=O)[C@H](CCCNC(=N)N)NC(=O)[C@H](CC(=O)O)NC(=O)[C@H](CC(C)C)NC(=O)[C@H](CCCCN)NC(=O)[C@H](CC(C)C)NC(=O)CNC(=O)[C@H](Cc2ccccc2)NC(=O)[C@@H](NC(=O)CNC(=O)[C@H](CCCNC(=N)N)NC(=O)[C@H](CO)NC(=O)[C@H](CC(C)C)NC(=O)CNC(=O)[C@H](CCCNC(=N)N)NC(=O)[C@H](CCCNC(=N)N)NC(=O)[C@H](CC(N)=O)NC(=O)[C@H](C)NC(=O)CNC(=O)CCOCCOCCOCCOCCOCCOCCOCCOCCOCCOCCOCCOCCOCCOCCOCCOCCOCCOCCOCCOCCOCCOCCOCCOC)CSSC[C@@H](C(=O)O)NC(=O)CNC(=O)[C@H](CC(C)C)NC(=O)CNC(=O)[C@H](CO)NC(=O)[C@H](CCSC)NC(=O)[C@H](CO)NC(=O)CNC1=O` [PEO24-GANRR-CNP22(K4R)] ({MeO(CH2CH2O)23CH2CH2CO}-GANRRGLSRGCFGLKLDRIGSMSGLGC-OH; disulfide 11-27), the “resistance to NEP cleavage (in words)” value (Recombinant human NEP) is reported as “completely resistant to NEP cleavage over the assay period of 160 minutes”, the “cGMP levels in conditioned media” value ([1]; ex-planted wild-type mouse femurs and tibias, day 8) is reported as “large increase (p<0.01)” and the “longitudinal growth of wild-type mouse tibia ex vivo” value ([1]; treated every two days) is reported as “increased the longitudinal growth of the tibia compared to vehicle or CNP22”. The “longitudinal growth of wild-type mouse femur ex vivo” value ([1]; treated every two days) was “the most effective”, the “longitudinal growth of wild-type mouse femur ex vivo” value ([1]; treated every two days, listed as PE024-GANRR-CNP22(K4R)) was “stimulated the growth of wild-type mouse femur” and the “levels of cleaved collagen type II in conditioned media” value ([1]; wild-type mouse femurs) was “increased”. For the same compound, the “levels of cleaved collagen type II in conditioned media” value ([2]; FGFR3^ach mouse femurs) was “significantly increased (p<0.05)”, the “cGMP levels in conditioned media” value ([2]; ex-planted FGFR3^ach mouse femurs and tibias, day 8) was “large increase (p<0.01)” and the “longitudinal growth of FGFR3^ach mouse femur ex vivo” value ([2]; treated every two days) was “increased the longitudinal growth of FGFR3^ach mouse femur compared to vehicle”. The “longitudinal growth of FGFR3^ach mouse tibia ex vivo” value ([2]; treated every two days) was “increased the longitudinal growth of the tibia compared to vehicle or CNP22”.

Source: patent USRE48267E1, “Variants of C-type natriuretic peptide” (priority 2009, dated 2020)
